Experiments:
THR alpha-LBD = target: T1, THR alpha-LBD (Homo sapiens, UniProt P10827); assay: THR-α Coactivator Peptide Recruitment Assay (LanthaScreen TR-FRET); assay type: biochemical; details: TR-FRET coactivator recruitment, THR alpha-LBD 0.25 nM; for EC50: read-out: THRα EC50
T1 construct: except that THR alpha-LBD of a final concentration 0.25 nM was used; purchased Invitrogen PV4687
Outline: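 TR-FRET coactivator recruitment with THR alpha-LBD at 0.25 nM final, Fluorescein-SRC2-2 peptide 0.1 nM and Tb-labeled anti-GST antibody 2 nM; 2 h incubation at room temperature. 520/495 nm emission ratio fitted to a four-parameter sigmoidal curve to give EC50.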

THR beta-LBD = target: T2, THR beta-LBD (Homo sapiens, UniProt P10828); assay: THR-β Coactivator Peptide Recruitment Assay (LanthaScreen TR-FRET); assay type: biochemical; details: TR-FRET coactivator recruitment, THR beta-LBD 0.5 nM; for EC50: read-out: THRβ EC50
T2 construct: THR beta-LBD (the final concentration is 0.5 nM) was added to the 384-well assay plate; purchased Invitrogen PV4686
T2 sequence (P10828 217-461 limits assumed): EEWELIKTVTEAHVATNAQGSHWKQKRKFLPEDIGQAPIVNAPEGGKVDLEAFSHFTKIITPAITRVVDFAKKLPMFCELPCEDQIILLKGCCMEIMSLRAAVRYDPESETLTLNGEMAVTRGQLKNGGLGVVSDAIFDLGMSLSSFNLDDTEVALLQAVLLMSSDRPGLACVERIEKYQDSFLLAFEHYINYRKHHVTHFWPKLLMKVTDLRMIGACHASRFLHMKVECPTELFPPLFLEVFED
Outline: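 GST-tagged THR beta-LBD (0.5 nM) with test compound recruits fluorescein-SRC2-2 coactivator peptide (0.1 nM), detected with Tb-anti-GST antibody (2 nM).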

T1 sequence (P10827 163-410 isoform P10827-2 limits assumed, other chains not shown): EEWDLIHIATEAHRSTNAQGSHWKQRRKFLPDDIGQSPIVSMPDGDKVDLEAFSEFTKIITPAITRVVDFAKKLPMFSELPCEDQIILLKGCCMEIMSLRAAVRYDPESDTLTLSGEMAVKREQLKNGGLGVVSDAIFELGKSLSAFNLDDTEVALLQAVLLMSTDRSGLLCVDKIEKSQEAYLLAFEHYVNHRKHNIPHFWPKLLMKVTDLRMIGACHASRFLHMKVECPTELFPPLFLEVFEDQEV

| SMILES | THRα Emax (THR alpha-LBD) | EC50 (THR alpha-LBD) [nM] | THRβ Emax (THR beta-LBD) | EC50 (THR beta-LBD) [nM] |
| --- | --- | --- | --- | --- |
| O=C(C1CC1)N1CC(NS(=O)(=O)c2cc(Oc3c(Cl)cc(-n4nc(C(F)F)c(=O)[nH]c4=O)cc3Cl)ccc2O)C1 [Compound 52, N-(1-(cyclopropanecarbonyl)azetidin-3-yl)-5-(2,6-dichloro-4-(6-(difluoromethyl)-3,5-dioxo-4,5-dihydro-1,2,4-triazin-2(3H)-yl)phenoxy)-2-hydroxybenzenesulfonamide] | B (40~85) | > 1000 | B (75~90) | 20 to 100 |
| CN(C)C(=O)N1CC(NS(=O)(=O)c2cc(Oc3c(Cl)cc(-n4nc(C(F)F)c(=O)[nH]c4=O)cc3Cl)ccc2O)C1 [Compound 53, 3-((5-(2,6-dichloro-4-(6-(difluoromethyl)-3,5-dioxo-4,5-dihydro-1,2,4-triazin-2(3H)-yl)phenoxy)-2-hydroxyphenyl)sulfonamido)-N,N-dimethylazetidine-1-carboxamide] | B (40~85) | > 1000 | B (75~90) | 2 to 20 |
| CS(=O)(=O)N1CC(NS(=O)(=O)c2cc(Oc3c(Cl)cc(-n4nc(C(F)F)c(=O)[nH]c4=O)cc3Cl)ccc2O)C1 [Compound 54, 5-(2,6-dichloro-4-(6-(difluoromethyl)-3,5-dioxo-4,5-dihydro-1,2,4-triazin-2(3H)-yl)phenoxy)-2-hydroxy-N-(1-(methylsulfonyl)azetidin-3-yl)benzenesulfonamide] | B (40~85) | 200 to 1000 | C (<75) | 20 to 100 |
| CCS(=O)(=O)N[C@H]1CCN(S(=O)(=O)c2cc(Oc3c(Cl)cc(-n4nc(C(F)F)c(=O)[nH]c4=O)cc3Cl)ccc2O)C1 [Compound 55, (S)-N-(1-((5-(2,6-dichloro-4-(6-(difluoromethyl)-3,5-dioxo-4,5-dihydro-1,2,4-triazin-2(3H)-yl)phenoxy)-2-hydroxyphenyl)sulfonyl)pyrrolidin-3-yl)ethanesulfonamide] | B (40~85) | 2 to 200 | B (75~90) | < 2 |
| O=C(N[C@H]1CCN(S(=O)(=O)c2cc(Oc3c(Cl)cc(-n4nc(C(F)F)c(=O)[nH]c4=O)cc3Cl)ccc2O)C1)C1CC1 [Compound 56, (S)-N-(1-((5-(2,6-dichloro-4-(6-(difluoromethyl)-3,5-dioxo-4,5-dihydro-1,2,4-triazin-2(3H)-yl)phenoxy)-2-hydroxyphenyl)sulfonyl)pyrrolidin-3-yl)cyclopropanecarboxamide] | B (40~85) | 2 to 200 | C (<75) | < 2 |
| CNC(=O)N1CC(NS(=O)(=O)c2cc(Oc3c(Cl)cc(-n4nc(C(F)F)c(=O)[nH]c4=O)cc3Cl)ccc2O)C1 [Compound 57, 3-((5-(2,6-dichloro-4-(6-(difluoromethyl)-3,5-dioxo-4,5-dihydro-1,2,4-triazin-2(3H)-yl)phenoxy)-2-hydroxyphenyl)sulfonamido)-N-methylazetidine-1-carboxamide] | C (<40) | > 1000 | C (<75) | 20 to 100 |
| NC(=O)CNS(=O)(=O)c1cc(Oc2c(Cl)cc(-n3nc(C(F)F)c(=O)[nH]c3=O)cc2Cl)ccc1O [Compound 58, 2-((5-(2,6-dichloro-4-(6-(difluoromethyl)-3,5-dioxo-4,5-dihydro-1,2,4-triazin-2 (3H)-yl)phenoxy)-2-hydroxyphenyl)sulfonamido)acetamide] | A (85~110) | 2 to 200 | B (75~90) | < 2 |
| O=C(CNS(=O)(=O)c1cc(Oc2c(Cl)cc(-n3nc(C(F)F)c(=O)[nH]c3=O)cc2Cl)ccc1O)NC1CC1 [Compound 59, N-cyclopropyl-2-((5-(2,6-dichloro-4-(6-(difluoromethyl)-3,5-dioxo-4,5-dihydro-1,2,4-triazin-2(3H)-yl)phenoxy)-2-hydroxyphenyl)sulfonamido)acetamide] | B (40~85) | 200 to 1000 | A (90~110) | 2 to 20 |
| CNC(=O)CNS(=O)(=O)c1cc(Oc2c(Cl)cc(-n3nc(C(F)F)c(=O)[nH]c3=O)cc2Cl)ccc1O [Compound 60, 2-((5-(2,6-dichloro-4-(6-(difluoromethyl)-3,5-dioxo-4,5-dihydro-1,2,4-triazin-2(3H)-yl)phenoxy)-2-hydroxyphenyl)sulfonamido)-N-methylacetamide] | B (40~85) | 2 to 200 | B (75~90) | 2 to 20 |
| CNC(=O)[C@H]1C[C@H](NS(=O)(=O)c2cc(Oc3c(Cl)cc(-n4nc(C(F)F)c(=O)[nH]c4=O)cc3Cl)ccc2O)C1 [Compound 61, (1r,3r)-3-((5-(2,6-dichloro-4-(6-(difluoromethyl)-3,5-dioxo-4,5-dihydro-1,2,4-triazin-2(3H)-yl)phenoxy)-2-hydroxyphenyl)sulfonamido)-N-methylcyclobutane-1-carboxamide] | B (40~85) | > 1000 | B (75~90) | 2 to 20 |
| COCCNS(=O)(=O)c1cc(Oc2c(Cl)cc(-n3nc(C(F)F)c(=O)[nH]c3=O)cc2Cl)ccc1O [Compound 65, 5-[2,6-dichloro-4-[6-(difluoromethyl)-3,5-dioxo-1,2,4-triazin-2-yl]phenoxy]-2-hydroxy-N-(2-methoxyethyl) benzenesulfonamide] | B (40~85) | 2 to 200 | B (75~90) | < 2 |

Further lines, results first:

| THRα Emax (THR alpha-LBD) | EC50 (THR alpha-LBD) [nM] | THRβ Emax (THR beta-LBD) | EC50 (THR beta-LBD) [nM] | SMILES |
| --- | --- | --- | --- | --- |
| B (40~85) | 200 to 1000 | B (75~90) | 2 to 20 | O=C(CNS(=O)(=O)c1cc(Oc2c(Cl)cc(-n3nc(C(F)F)c(=O)[nH]c3=O)cc2Cl)ccc1O)NC1CCC1 [Compound 62, N-cyclobutyl-2-((5-(2,6-dichloro-4-(6-(difluoromethyl)-3,5-dioxo-4,5-dihydro-1,2,4-triazin-2(3H)-yl)phenoxy)-2-hydroxyphenyl)sulfonamido)acetamide] |
| B (40~85) | > 1000 | B (75~90) | 20 to 100 | O=C(CNS(=O)(=O)c1cc(Oc2c(Cl)cc(-n3nc(C(F)F)c(=O)[nH]c3=O)cc2Cl)ccc1O)N1CCC1 [Compound 63, N-[2-(azetidin-1-yl)-2-oxo-ethyl]-5-[2,6-dichloro-4-[6-(difluoromethyl)-3,5-dioxo-1,2,4-triazin-2-yl]phenoxy]-2-hydroxy-benzenesulfonamide] |
| C (<40) | > 1000 | B (75~90) | > 100 | O=c1[nH]c(=O)n(-c2cc(Cl)c(Oc3cnc(O)c(S(=O)(=O)NC4CCC4)c3)c(Cl)c2)nc1C(F)F [Compound 64, N-cyclobutyl-5-[2,6-dichloro-4-[6-(difluoromethyl)-3,5-dioxo-1,2,4-triazin-2-yl]phenoxy]-2-hydroxy-pyridine-3-sulfonamide] |
| B (40~85) | 2 to 200 | C (<75) | 2 to 20 | O=c1[nH]c(=O)n(-c2cc(Cl)c(Oc3ccc(O)c(S(=O)(=O)N[C@@H]4CC[C@H](O)C4)c3)c(Cl)c2)nc1C(F)F [Compound 66, 5-(2,6-dichloro-4-(6-(difluoromethyl)-3,5-dioxo-4,5-dihydro-1,2,4-triazin-2(3H)-yl)phenoxy)-2-hydroxy-N-((1R,3S)-3-hydroxycyclopentyl)benzenesulfonamide] |
| B (40~85) | 2 to 200 | B (75~90) | 2 to 20 | O=c1[nH]c(=O)n(-c2cc(Cl)c(Oc3ccc(O)c(S(=O)(=O)N[C@H]4CC[C@@H](O)C4)c3)c(Cl)c2)nc1C(F)F [Compound 67, 5-(2,6-dichloro-4-(6-(difluoromethyl)-3,5-dioxo-4,5-dihydro-1,2,4-triazin-2(3H)-yl)phenoxy)-2-hydroxy-N-((1S,3R)-3-hydroxycyclopentyl)benzenesulfonamide] |
| A (85~110) | 2 to 200 | B (75~90) | 2 to 20 | NS(=O)(=O)c1cc(Oc2c(Cl)cc(-n3nc(C(F)F)c(=O)[nH]c3=O)cc2Cl)ccc1O [Compound 68, 5-[2,6-dichloro-4-[6-(difluoromethyl)-3,5-dioxo-1,2,4-triazin-2-yl]phenoxy]-2-hydroxy-benzene sulfonamide] |
| A (85~110) | 2 to 200 | A (90~110) | < 2 | N#C[C@H]1C[C@@H](NS(=O)(=O)c2cc(Oc3c(Cl)cc(-n4nc(C(F)F)c(=O)[nH]c4=O)cc3Cl)ccc2O)C1 [Compound 69, N-((1s,3s)-3-cyanocyclobutyl)-5-(2,6-dichloro-4-(6-(difluoromethyl)-3,5-dioxo-4,5-dihydro-1,2,4-triazin-2(3H)-yl)phenoxy)-2-hydroxybenzenesulfonamide] |
| B (40~85) | 2 to 200 | B (75~90) | 2 to 20 | O=c1[nH]c(=O)n(-c2cc(Cl)c(Oc3ccc(O)c(S(=O)(=O)NC4(CO)CC4)c3)c(Cl)c2)nc1C(F)F [Compound 70, 5-(2,6-dichloro-4-(6-(difluoromethyl)-3,5-dioxo-4,5-dihydro-1,2,4-triazin-2(3H)-yl)phenoxy)-2-hydroxy-N-(1-(hydroxymethyl)cyclopropyl)benzenesulfonamide] |

— patent publication US12291518B2, “Thyroid hormone receptor agonists and use thereof” (Eccogene Inc., priority 2020, dated 2025)
